Measured values published in publication PMC9587990, “Molecular basis for isoform-selective inhibition of presenilin-1 by MRK-560” (Nature Communications, 2022).
Several values for one entry are separate records, joined by “and”; a condition that tells them apart may be missing. Equal values may be shown once. Entries after “also recorded” stand apart in the source; their conditions may differ. Read-outs that look alike come from different tables or passages of the source.

What was measured:
[1] = test system: PS1 and PS2 with swapped loop-3; experiment: in vitro cleavage assay, AICD production by western blot; assay type: biochemical, human
Method: Fig. 4 Thr281 and Leu282 of PS1 determine the isoform selectivity of MRK-560. a–c Individual and double residue swapping of Thr281 and Leu282 in PS1 with the corresponding Pro287 and Ile288 in PS2 alter their respective sensitives to MRK-560 accordingly. IC50 values for MRK-560 inhibition of the indicated PS1 (a) and PS2 (b) mutants were measured using the AlphaLISA assay that detects Aβ40 production. Please refer to Methods for experimental details. Data are presented as mean values ± SD. c Production of AICD by residue-swapped PS1 and PS2 mutants. The amount of AICD generated by the indicated variants in the presence of serial diluted MRK-560 is consistent with the corresponding IC50 shown in (a, b). […] The production of AICD was quantified by ImageJ. Red asterisks indicate the first concentration where the normalized production of AICD was reduced to less than 20%. Source data are provided as a Source Data file. […]
All proteins used for the activity assay were sub-cloned, expressed and purified as described. Protein concentration was determined using the Bradford method. […] The cleaved products of these substrates were detected using a monoclonal antibody (1:1000 dilution, CW0299, CWBio) against the C-terminal Myc tag. Aβ40 production was detected using the AlphaLISA assay (PerkinElmer) as described. The IC50 values and the inhibition curves were calculated using Prism 8.0.

[2] = molecular target: T1, PS2-complex (WT PS2-containing γ-secretase) (Homo sapiens, UniProt P49810); experiment: in vitro cleavage assay, Aβ40 production by AlphaLISA; assay type: biochemical; conditions: for remaining activity at 0.002 µM / remaining activity at 0.01 µM / remaining activity at 0.04 µM / remaining activity at 0.2 µM / remaining activity at 1 µM / remaining activity at 10 µM: 4 h; for remaining activity at 0.002 µM / remaining activity at 0.01 µM / remaining activity at 0.04 µM / remaining activity at 0.2 µM / remaining activity at 1 µM / remaining activity at 10 µM / Caculated Aβ40 production / raw data from α-Lisa reading: PS2 WT
T1 construct: made in house; host or cells: mammalian cells (HEK293F is stated for the cryo-EM samples)
Method: (§1) The PS1- or PS2 complexes were expressed and purified as described. To validate the inhibitory effect of MRK-560 (Fig. 1a), we reconstituted an in vitro cleavage assay using the purified PS1- or PS2 complexes. Production of Aβ40, which is the major cleavage product among the varying lengths of Aβs, and AICD, whose cleavage reflects the endopeptidase activity of γ-secretase, are measured with AlphaLISA and western blots, respectively. All proteins used for the activity assay were sub-cloned, expressed and purified as described. Protein concentration was determined using the Bradford method. […] The cleavage reaction was conducted at 37 °C for 4 h. The cleaved products of these substrates were detected using a monoclonal antibody (1:1000 dilution, CW0299, CWBio) against the C-terminal Myc tag. Aβ40 production was detected using the AlphaLISA assay (PerkinElmer) as described. The IC50 values and the inhibition curves were calculated using Prism 8.0. Statistical analysis of Aβ40 was performed using Prism 8 (GraphPad Software, San Diego, CA, USA). IC50 were determined by a four-parameter logistic regression. The statistical details can be found in Figs. 1, 4 and legends. Data are expressed as mean ± SD.

[3] = molecular target: T2, PS1-complex (WT PS1-containing γ-secretase) (Homo sapiens, UniProt P49768); experiment: as above; assay type: biochemical; conditions: for remaining activity at 0.002 µM / remaining activity at 0.01 µM / remaining activity at 0.04 µM / remaining activity at 0.2 µM / remaining activity at 1 µM / remaining activity at 10 µM: 4 h
T2 construct: made in house; host or cells: mammalian cells (HEK293F is stated for the cryo-EM samples)
Method: as §1

[4] = PS1 WT, MRK-560 2 nM, replicates
[5] = PS1 WT, MRK-560 10 nM, replicates
[6] = PS1 WT, MRK-560 40 nM, replicates
[7] = PS1 WT, MRK-560 200 nM, replicates
[8] = PS1 WT, MRK-560 1 μM, replicates
[9] = PS1 WT, MRK-560 10 μM, replicates

O=S(=O)(NC1CCC(c2cc(F)ccc2F)(S(=O)(=O)c2ccc(Cl)cc2)CC1)C(F)(F)F (stereo not drawn) [MRK-560, N-[cis-4-[(4-chlorophenyl)sulfonyl]-4-(2,5-difluorophenyl)cyclohexyl]-1,1,1-trifluoromethanesulfonamide]
effect of swapping loop-3 between PS1 and PS2 on sensitivity to MRK-560 [1]: little influence on inhibition selectivity; also recorded: no detectable effect on the sensitivity | remaining activity at 0.002 µM ([2]; MRK-560 2 nM, mean of 3 replicates, read-out: Normalized production (control=1), Mean): 98.5% | remaining activity at 0.002 µM ([2]; MRK-560 2 nM, replicates, read-out: Normalized production (control=1)): 96.8% | remaining activity at 0.01 µM ([2]; MRK-560 10 nM, mean of 3 replicates, read-out: Normalized production (control=1), Mean): 93.7% | remaining activity at 0.01 µM ([2]; MRK-560 10 nM, replicates, read-out: Normalized production (control=1)): 96.7% | remaining activity at 0.04 µM ([2]; MRK-560 40 nM, mean of 3 replicates, read-out: Normalized production (control=1), Mean): 94.4% | remaining activity at 0.04 µM ([2]; MRK-560 40 nM, replicates, read-out: Normalized production (control=1)): 92.8% | remaining activity at 0.2 µM ([2]; MRK-560 200 nM, mean of 3 replicates, read-out: Normalized production (control=1), Mean): 44.1% | remaining activity at 0.2 µM ([2]; MRK-560 200 nM, replicates, read-out: Normalized production (control=1)): 43.5% | remaining activity at 1 µM ([2]; MRK-560 1 μM, mean of 3 replicates, read-out: Normalized production (control=1), Mean): 9.52% | remaining activity at 1 µM ([2]; MRK-560 1 μM, replicates, read-out: Normalized production (control=1)): 8.72% | remaining activity at 10 µM ([2]; MRK-560 10 μM, mean of 3 replicates, read-out: Normalized production (control=1), Mean): 6.39% | remaining activity at 10 µM ([2]; MRK-560 10 μM, replicates, read-out: Normalized production (control=1)): 6.67% | IC50 ([2]; PS2-complex WT, mean ± SD, n=3): 173 ± 24 nM | Caculated Aβ40 production ([2]; MRK-560 2 nM, replicates): 178.2729 and 172.6848 and 175.9467 | raw data from α-Lisa reading ([2]; MRK-560 2 nM, replicates): 27903 and 28403 and 28759 | Caculated Aβ40 production ([2]; MRK-560 10 nM, replicates): 177.3643 and 172.5675 and 151.3305 | raw data from α-Lisa reading ([2]; MRK-560 10 nM, replicates): 27885 and 24607 and 28620 | Caculated Aβ40 production ([2]; MRK-560 40 nM, replicates): 171.4208 and 165.5620 and 168.4662 | raw data from α-Lisa reading ([2]; MRK-560 40 nM, replicates): 26808 and 27255 and 27709 | Caculated Aβ40 production ([2]; MRK-560 200 nM, replicates): 82.1115 and 77.5422 and 76.1780 | raw data from α-Lisa reading ([2]; MRK-560 200 nM, replicates): 12906 and 12685 and 13645 | Caculated Aβ40 production ([2]; MRK-560 1 μM, replicates): 17.8069 and 15.5539 and 17.5803 | raw data from α-Lisa reading ([2]; MRK-560 1 μM, replicates): 2685 and 3025 and 3063 | Caculated Aβ40 production ([2]; MRK-560 10 μM, replicates): 12.9409 and 11.9064 and 9.3762 | raw data from α-Lisa reading ([2]; MRK-560 10 μM, replicates): 2072 and 1646 and 2246 | remaining activity at 0.002 µM ([3]; PS1 WT, MRK-560 2 nM, mean of 3 replicates, read-out: Normalized production (control=1), Mean): 101% | remaining activity at 0.002 µM ([3]; PS1 WT, MRK-560 2 nM, replicates, read-out: Normalized production (control=1)): 102% | remaining activity at 0.01 µM ([3]; PS1 WT, MRK-560 10 nM, mean of 3 replicates, read-out: Normalized production (control=1), Mean): 92.4% | remaining activity at 0.01 µM ([3]; PS1 WT, MRK-560 10 nM, replicates, read-out: Normalized production (control=1)): 90.9% | remaining activity at 0.04 µM ([3]; PS1 WT, MRK-560 40 nM, mean of 3 replicates, read-out: Normalized production (control=1), Mean): 43.2% | remaining activity at 0.04 µM ([3]; PS1 WT, MRK-560 40 nM, replicates, read-out: Normalized production (control=1)): 43.4% | remaining activity at 0.2 µM ([3]; PS1 WT, MRK-560 200 nM, mean of 3 replicates, read-out: Normalized production (control=1), Mean): 8.2% | remaining activity at 0.2 µM ([3]; PS1 WT, MRK-560 200 nM, replicates, read-out: Normalized production (control=1)): 8.25% | remaining activity at 1 µM ([3]; PS1 WT, MRK-560 1 μM, mean of 3 replicates, read-out: Normalized production (control=1), Mean): 0.63% | remaining activity at 1 µM ([3]; PS1 WT, MRK-560 1 μM, replicates, read-out: Normalized production (control=1)): 0.63% | remaining activity at 10 µM ([3]; PS1 WT, MRK-560 10 μM, mean of 3 replicates, read-out: Normalized production (control=1), Mean): 0.52% | remaining activity at 10 µM ([3]; PS1 WT, MRK-560 10 μM, replicates, read-out: Normalized production (control=1)): 0.46% | IC50 ([3]; PS1-complex WT, mean ± SD, n=3): 33 ± 2 nM | Caculated Aβ40 production [3, 4]: 346.0052 and 350.2238 and 339.9166 | raw data from α-Lisa reading [3, 4]: 53851 and 52412 and 53263 | Caculated Aβ40 production [3, 5]: 325.7701 and 311.5896 and 312.3355 | raw data from α-Lisa reading [3, 5]: 48416 and 48522 and 50424 | Caculated Aβ40 production [3, 6]: 146.9566 and 148.7756 and 148.6084 | raw data from α-Lisa reading [3, 6]: 24210 and 24184 and 23927 | Caculated Aβ40 production [3, 7]: 26.7052 and 28.2767 and 29.2852 | raw data from α-Lisa reading [3, 7]: 4813 and 4981 and 4551 | Caculated Aβ40 production [3, 8]: 2.1627 and 2.1745 and 2.1272 | raw data from α-Lisa reading [3, 8]: 430 and 422 and 428 | Caculated Aβ40 production [3, 9]: 1.8967 and 1.5777 and 1.8849 | Normalized production (control=1) [3, 9]: 0.0055 | raw data from α-Lisa reading [3, 9]: 329 and 381 and 383
